In doi:10.1101/2024.02.28.582502, “Magnesium Transporter MgtA revealed as a Dimeric P-type ATPase” (bioRxiv, 2024):

Key:
MgtA [1] = biological target: T1, MgtA (Escherichia coli, UniProt P0ABB8); assay: cryo-EM map density ([…] Å), ligand not modelled; conditions: 5 mM ADP, 5 mM MgCl2, pH 7.5, GDN, dimer, nucleotide binding site
T1 construct: full length, 898 aa, 100 kDa; pETDuet-1-MgtAS (co-expressed with MgtS, no MgtS density seen), E. coli C43(DE3); Ni-NTA and SEC in GDN; predominantly homodimer for cryo-EM, predominantly monomer in DDM for HDX-MS
T1 sequence (P0ABB8 1-898): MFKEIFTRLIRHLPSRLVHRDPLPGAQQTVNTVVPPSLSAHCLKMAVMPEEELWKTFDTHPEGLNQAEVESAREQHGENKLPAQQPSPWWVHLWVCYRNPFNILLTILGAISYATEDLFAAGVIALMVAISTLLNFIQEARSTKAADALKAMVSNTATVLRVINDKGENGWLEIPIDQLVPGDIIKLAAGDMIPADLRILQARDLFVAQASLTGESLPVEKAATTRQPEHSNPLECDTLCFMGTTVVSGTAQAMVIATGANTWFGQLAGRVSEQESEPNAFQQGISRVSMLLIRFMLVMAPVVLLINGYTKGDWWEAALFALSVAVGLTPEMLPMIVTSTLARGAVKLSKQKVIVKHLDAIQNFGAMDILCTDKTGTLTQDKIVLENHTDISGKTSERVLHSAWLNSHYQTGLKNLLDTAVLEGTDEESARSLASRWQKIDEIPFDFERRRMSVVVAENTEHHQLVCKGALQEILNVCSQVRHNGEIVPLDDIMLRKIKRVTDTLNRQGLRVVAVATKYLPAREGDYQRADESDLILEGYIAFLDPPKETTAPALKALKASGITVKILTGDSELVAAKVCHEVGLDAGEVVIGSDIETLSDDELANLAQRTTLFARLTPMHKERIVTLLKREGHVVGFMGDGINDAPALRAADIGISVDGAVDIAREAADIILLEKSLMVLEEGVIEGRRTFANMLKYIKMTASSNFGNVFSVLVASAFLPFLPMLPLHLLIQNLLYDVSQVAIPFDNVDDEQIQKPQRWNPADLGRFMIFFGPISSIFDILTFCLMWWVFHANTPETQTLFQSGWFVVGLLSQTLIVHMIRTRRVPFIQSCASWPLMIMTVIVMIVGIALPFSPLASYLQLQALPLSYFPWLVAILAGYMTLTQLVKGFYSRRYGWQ

MgtA [2] = biological target: T1, MgtA; assay: cryo-EM structure ([…] Å); HDX-MS; conditions: cryo-EM: 5 mM ATP, 5 mM MgCl2, pH 7.5, GDN, dimer, nucleotide binding site; HDX-MS: 5 mM ATP, 5 mM MgSO4, DDM, mainly monomer
MgtA [3] = biological target: T1, MgtA; assay: cryo-EM structure ([…] Å); HDX-MS; conditions: cryo-EM: 5 mM ATPγS, 5 mM MgCl2, pH 7.5, GDN, dimer, nucleotide binding site; HDX-MS: 5 mM ATPγS, 5 mM MgSO4, DDM, mainly monomer
[4] = biological target: the molecule itself; assay: cryo-EM structure; single-particle cryo-EM of GDN-purified MgtA, 5 mM MgCl2, 0.007% GDN; without nucleotide or with 5 mM ATP, ATPγS or ADP

Molecule: Nc1ncnc2c1ncn2[C@@H]1O[C@H](COP(=O)(O)OP(=O)(O)O)[C@@H](O)[C@H]1O [ADP]
- cryo-EM map density (3.75 Å), ligand not modelled (MgtA [1]): some ADP can enter the nucleotide binding pocket but cannot be bound as tightly

Molecule: Nc1ncnc2c1ncn2[C@@H]1O[C@H](COP(=O)(O)OP(=O)(O)OP(=O)(O)O)[C@@H](O)[C@H]1O [ATP]
- cryo-EM structure (3.72 Å); HDX-MS (MgtA [2]): Cryo-EM structures of the MgtA dimer bound to the ligands ATP, ATPgS, and ADP

Molecule: Nc1ncnc2c1ncn2[C@@H]1O[C@H](COP(=O)(O)OP(=O)(O)OP(O)(O)=S)[C@@H](O)[C@H]1O [ATPγS]
- cryo-EM structure (3.87 Å); HDX-MS (MgtA [3]): MgtA with ATPγS, though resolved at slightly lower resolution, was structurally similar to MgtA with ATP

B1: Escherichia coli magnesium transporter MgtA (from pETDuet-1-MgtAS, co-overexpressed with MgtS) (natural protein)
chain: T1 sequence (P0ABB8 1-898)
notes: MgtA, E. coli, P-type ATPase Mg2+ transporter, 100 kDa, 898 amino acids; residues from the N-terminal tail (1-36) on are modelled in the dimer structure; That the His tag stands on MgtA is inferred from its elution from Ni-NTA; also called EcMgtA; MgtAS (the purified sample); source: E. coli C43 (DE3), pETDuet-1-MgtAS, co-overexpressed with MgtS; membranes solubilised with 1% GDN (or DDM, LMNG); …
- stoichiometry N [4]: 2
